Tests used:
[1] = tested on: PAF-Induced Bronchoconstriction; assay: PAF-Induced Bronchoconstriction Assay; type: in vivo, guinea pig; settings: for inhibition in vivo at 1 mg/kg / inhibition in vivo at 50 mg/kg: Cavia porcellus; for inhibition in vivo at 1 mg/kg: 1 min; for inhibition in vivo at 50 mg/kg: po, 2 hours pretreatment
Protocol: The in vivo ability of compounds to inhibit PAF-induced bronchoconstriction in guinea pigs was assessed by the intravenous and oral routes of administration. The intravenous technique utilized male guinea pigs (Hartley strain, Charles River) weighing 400-600 g. Animals were anesthetized with urethane (2 g/kg) intraperitoneally and a polyethylene cannula was inserted into the jugular vein for intravenous drug administration. Tracheal pressure ([…]) was recorded from a Statham pressure transducer (P 32 AA). Propranolol was administered 5 minutes prior to challenge with PAF. Two minutes later spontaneous breathing was arrested with succinylcholine chloride (1.2 mg/kg) administered intravenously, and the animals were ventilated with a Harvard (Model 680) small animal respirator set at 40 breaths/min and 4.0 cc stroke volume. Control vehicle or test drug was administered through the cannula into the jugular vein 1 minute before the animals were challenged with a maximum constrictory dose of PAF (1.0 μg/kg) given intravenously. The change in tracheal pressure was averaged for four control and four drug-treated animals and percent inhibition was calculated.
For determination of oral activity, animals were dosed with test compound or vehicle two hours prior to challenge with PAF (1.0 μg/kg, i.v.).
The change in tracheal pressure is determined by subtracting the steady state baseline achieved after administration of succinylcholine from the peak bronchoconstriction seen after challenge with PAF. The mean change in tracheal pressure is calculated for each test compound and compared to the mean change in tracheal pressure for the control animals to give the percent inhibition of bronchoconstriction. The standard error is calculated as the standard error of the mean.

[2] = biological target: T1, PAF binding, dog platelets (Canis lupus familiaris, UniProt A0A8I3NSH0); assay: PAF Binding Assay (3H-PAF binding to washed dog platelets); settings: 10 minutes at room temperature
T1 sequence (A0A8I3NSH0 1-343): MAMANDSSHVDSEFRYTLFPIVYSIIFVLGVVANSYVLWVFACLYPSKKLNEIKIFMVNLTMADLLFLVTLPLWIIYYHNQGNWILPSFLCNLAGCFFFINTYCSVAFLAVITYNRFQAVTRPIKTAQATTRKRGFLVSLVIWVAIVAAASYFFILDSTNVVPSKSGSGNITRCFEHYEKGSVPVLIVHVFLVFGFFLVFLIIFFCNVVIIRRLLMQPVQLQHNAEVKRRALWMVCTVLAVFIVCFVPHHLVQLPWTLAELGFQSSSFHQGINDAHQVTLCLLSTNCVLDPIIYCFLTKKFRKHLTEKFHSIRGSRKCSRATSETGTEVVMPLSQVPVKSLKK
Protocol: The binding assay was performed in 400 μl polyethylene microcentrifuge tubes (Beckman) containing 50 μl of an oil mixture of 2 parts Siliconol AR200 (Serva): 1 part Silicone Fluid (Arthur H. Thomas). Buffer, standards, or analogs 150 μl total volume) were added to the tubes. Radiolabelled ^3 H-PAF (50 μl) was then added to the tubes. The reaction was started by the addition of 50 μl of dog platelets (2×10^7 platelets). The tubes were capped, inverted several times to mix, and incubated for 10 minutes at room temperature. The platelets were separated from the incubation mixture by centrifuging 1 minute in a Beckman Microfuge B centrifuge. The tip of the microfuge tube was cut off, and the platelets were washed out of the tip with 200 μl of 50% methanol (Burdick and Jackson). Aquasol (NEN, 10 ml) was added and the radioactivity in the samples was determined using an LS 8100 Beckman liquid scintillation counter linked to a Techtran tape recorder. Data was processed through an in-house computer system. Alternatively, radioactivity was determined using a Searle Mark III liquid scintillation counter linked to a Iso-Data microprocessor.
Blood was collected from anesthesized or unanesthesized dogs into 5ml plastic centrifuge tubes containing 3.8% sodium citrate as the anticoagulant (1 volume of citrate/9 volumes of blood). The red cells were removed by centrifugation for 15 minutes at 600 rpm (100-125 g) at room temperature. An aliquot of the supernatant platelet rich Plasma (PRP) was saved for cell counting and the remainder was acidified to pH 6.5 with 0.15M citric acid. The platelet pellet was obtained after a 10 minute centrifugation at 2000 rpm (1000 g) at room temperature. Washed platelets were prepared by resuspending the platelet pellet once with PBS containing 1 mM EDTA, centrifuging as noted, and then resuspending the platelets in 0.1% BSA-PBS. An aliquot of the washed platelets was counted, platelets used for binding assays were diluted to 2×10^7 platelets/assay tube (4×10^8 platelets/ml).

[3] = tested on: PAF-Induced Platelet Count Decrease; assay: PAF-Induced Platelet Count Decrease; type: in vivo, guinea pig; settings: for inhibition in vivo at 3 mg/kg: Cavia porcellus, Platelet, 0.25 h, iv, 15 minutes pretreatment time, read-out: PAF-Induced Platelet Count Decrease % Inhibition, i.v.
Protocol: Male Hartley guinea pigs weighing between 500 and 900 grams were fed standard guinea pig chow and tap water ad libitum. PAF was solubilized in ethanol and stored as a 2 mM stock solution at -70° C. The stock solution of PAF was diluted to […] in Tris buffer pH 7.4 and 0.1% BSA for all experiments.
Guinea pigs were anesthetized with urethane (1.6 g/kg, i.p.). A catheter (PE50) was introduced into the right carotid artery for withdrawing blood. A second catheter PE10) was introduced into the jugular vein for injecting drugs and for administering the PAF challenge (75 ng/kg, i.v.). A control blood sample was obtained and platelets were counted in a whole blood platelet analyzer. PAF was then given and blood samples were taken 15, 30, and 60 seconds after the challenge for platelet counts. Fifteen minutes later, selected concentrations of the test compound were solubilized in DMSO and injected intravenously into a group of 4-6 animals. Only one concentration of the test drug was used in each animal group. Fifteen minutes after drug injection, blood samples were taken before and 15, 30, and 60 sec after the PAF challenge, and analyzed for platelet number.
Animals were anesthetized with sodium pentobarbital (35 mg/kg. i.p.) and the carotid artery and jugular vein were cannulated as described above. The cannulae were exteriorized at the base of the neck and the animals were allowed to recover. Conscious, unrestrained guinea pigs which were allowed to recover from surgery for at least 18 hours were used in the experiments. The animals were challenged two times with PAF (120 ng/kg, i.v.); the first to establish a consistent response to PAF and the second to serve as a control from the PAF challenge. Blood samples were taken before and 15, 30, and 45 seconds after PAF challenge and platelets were counted. Thirty minutes after the control PAF challenge, the animals were orally dosed with either gum acacia or the test compound. Animals were then challenged with PAF at 1, 3, 5, and 24 hours after the administration of the drug.
The % change, i.e., the difference in platelet number before and after PAF challenge was calculated by: [formula] The % activity of drug was then determined by
Statistical significance (p≤0.05) of the difference between the mean PAF control and mean drug treated activity was determined with the pared Students's t-test.

[4] = 1 mg/kg iv, 1 minute pretreatment

Row | Structure (SMILES) | inhibition in vivo at 1 mg/kg [1, 4] | IC50 [2] | PAF-Induced Bronchoconstriction % Inhibition, 1 mg/kg iv [1, 4] | inhibition in vivo at 50 mg/kg [1] | inhibition in vivo at 3 mg/kg [3] | PAF-Induced Platelet Count Decrease % Inhibition, po ([3]; po, no dose footnote printed)
1 | C[C@H](CCCc1cccnc1)NC(=O)c1ccc(-c2ccccc2)c(-c2ccccc2)c1 [(R)-3,4-diphenyl-N-[1-methyl-4-(3-pyridinyl)-butyl]benzamide] | 31 ± 4% | 250 nM |  |  |  | 
2 | Cc1ccc(-c2ccc(C(=S)NCCCCc3cccnc3)cc2)cc1C [3',4'-Dimethyl-N-[4-(3-pyridinyl)butyl][1,1-biphenyl]-4-carbothioamide] |  | 600 nM | potentiation |  |  | 
3 | COc1ccc(-c2ccc(C(=O)N[C@H](C)CCCc3cccnc3)cc2[N+](=O)[O-])cc1OC [(R)-2-Nitro-3',4'-dimethoxy-N-[1-methyl-4-(3-pyridinyl)-butyl][1,1'-biphenyl]-4-carboxamide] | 97 ± 4% | 200 nM |  | 89 ± 8% |  | 
4 | O=C(NCCCCc1cccnc1)c1ccc(-c2ccccc2)c(-c2ccccc2)c1 [3,4-Diphenyl-N-[4-(3-pyridinyl)butyl]-benzamide] | 21 ± 4% |  |  | 33 ± 12% | 49% | 
5 | CCCc1cc(C(=O)N[C@H](C)CCCc2cccnc2)ccc1-c1ccc(OC)c(OC)c1 [(R)-3',4'-Dimethoxy-N-[1-methyl-4-(3-pyridinyl)butyl]-2-propyl-[1,1'-biphenyl]-4-carboxamide] | 28 ± 12% | 50 nM |  |  |  | 
6 | COc1ccc(-c2ccc(C(=O)N[C@H](C)CCCc3cccnc3)cc2Br)cc1OC [(R)-2-Bromo-3',4'-dimethoxy-N-[1-methyl-4-(3-pyridinyl)-butyl][1,1'-biphenyl]-4-carboxamide] | 98 ± 0.7% | 180 nM |  | 97 ± 1% |  | 
7 | CCCCc1cc(C(=O)NCCCCc2cccnc2)ccc1-c1ccc(OC)c(OC)c1 [2-Butyl-3',4'-dimethoxy-N-[4-(3-pyridinyl)butyl][1,1'-biphenyl)-4-carboxamide] | 6 ± 4% |  |  |  |  | 
8 | O=C(NCCCCc1cccnc1)c1ccc(C2CCCCC2)cc1 [4-Cyclohexyl-N-[4-(3-pyridinyl)butyl]-benzamide] | 17 ± 7% | 250 nM |  |  |  | 
9 | Cc1ccc(-c2ccc(-c3nnn(CCCCc4cccnc4)n3)cc2)cc1C [3-[4-[5-(3',4'-Dimethyl-[1,1'-biphenyl]-4-yl)-2H-tetrazol-2-yl]butyl]pyridine] | 17 ± 15% | > 1000 nM |  |  |  | 
10 | COc1ccc(-c2ccc(C(=O)NCCCCc3cccnc3)cc2[N+](=O)[O-])cc1OC [2-Nitro-3',4'-dimethoxy-N-[4-(3-pyridinyl)-butyl][1,1'-biphenyl]-4-carboxamide] | 81 ± 15% | 200 nM |  | 62 ± 15% |  | 
11 | CCCc1cc(C(=O)NCCCCc2cccnc2)ccc1-c1ccccc1 [2-Propyl-N-[4-(3-pyridinyl)butyl][1,1'-biphenyl]-4-carboxamide] | 38 ± 8% | 60 nM |  |  |  | 
12 | CCCCc1cc(C(=O)N[C@H](C)CCCc2cccnc2)ccc1-c1ccc(OC)c(OC)c1 [(R)-2-Butyl-3',4'-dimethoxy-N-[1-Methyl-4-(3-pyridinyl)butyl][1,1'-biphenyl]-4-carboxamide] | 55 ± 12% |  |  |  |  | 
13 | COc1ccc(-c2ccc(C(=O)NCCCCc3cccnc3)cc2-c2ccc(OC)cc2)cc1 [3,4-bis-(4,Methoxyphenyl)-N-[4-(3-pyridinyl)butyl]-benzamide] | 26 ± 6% | 125 nM |  |  |  | 
14 | COc1ccc(-c2ccc(C(=O)N[C@H](C)CCCc3cccnc3)cc2)cc1OC [(R)-3',4'-Dimethoxy-N-[1-methyl-4-(3-pyridinyl)butyl][1,1'-biphenyl]-4-carboxamide] | 65 ± 11% |  |  | 88 ± 3% |  | 
15 | CCCc1cc(C(=O)N[C@H](C)CCCc2cccnc2)ccc1-c1ccccc1 [(R)-2-Propyl-N-[1-methyl-4-(3-pyridinyl)-butyl]-[1,1'-biphenyl]-4-carboxamide] | 12 ± 6% | 50 nM |  |  |  | 
16 | C=CCc1cc(C(=O)N[C@H](C)CCCc2cccnc2)ccc1-c1ccc(OC)c(OC)c1 [(R)-3',4'-Dimethoxy-N-[1-methyl-4-(3-pyridinyl)butyl]-2-(2-propenyl)-[1,1'-biphenyl]-4-carboxamide] | 80 ± 11% | 80 nM |  | 93 ± 3% |  | 
17 | O=C(NCCCCc1cccnc1)c1cccc(-c2ccccc2)c1 [N-[4-(3-pyridinyl)butyl][1,1'-biphenyl]-3-carboxamide] | 14 ± 10% | 620 nM |  |  |  | 
18 | CCCCc1ccc(C(=O)NCCCCc2cccnc2)cc1CCCC [3,4-Dibutyl-N-[4-(3-pyridinyl)butyl]benzamide] |  | > 1000 nM |  |  |  | 
19 | CCCCc1cc(C(=O)NCCCCc2cccnc2)ccc1-c1ccccc1 [2-Butyl-N-[4-(3-pyridinyl)butyl][1,1'-biphenyl]-4-carboxamide] | 27 ± 10% | 500 nM |  |  |  | 
20 | Cc1ccc(-c2ccc(-c3nnn(CCCc4cccnc4)n3)cc2)cc1C [3-[3-[5-(3',4'-Dimethyl-[1,1'-biphenyl]-4-yl)-2H-tetrazol-2-yl]propyl]pyridine] | 11 ± 3% | > 1000 nM |  |  |  | 
21 | COc1ccc(-c2ccc(C(=O)NCCCCc3cccnc3)cc2OC)cc1OC [2,3',4'-trimethoxy-N-[4-(3-pyridinyl)butyl]-[1,1'-biphenyl]-4-carboxamide] | 58 ± 10% | 300 nM |  |  |  | 
22 | COc1cccc(-c2ccc(C(=O)NCCCCc3cccnc3)cc2-c2cccc(OC)c2)c1 [3,4-bis-(3-Methoxyphenyl)-N-[4-(3-pyridinyl)butyl]-benzamide] | 12 ± 6% |  |  |  | 4% | 
23 | Cc1ccc(-c2ccc(-c3nnn(CCCCCCc4cccnc4)n3)cc2)cc1C [3-[6-[5-(3',4'-Dimethyl-[1,1'-biphenyl]-4-yl)-2H-tetrazol-2-yl]hexyl]pyridine] | 40 ± 4% | > 1000 nM |  |  |  | 
24 | COc1ccc(-c2ccc(C(=O)NC(C)CCCc3cccnc3)cc2)cc1OC (racemic) [(rac.)-3',4'-Dimethoxy-N-[1-methyl-4-(3-pyridinyl)butyl][1,1'-biphenyl]-4-carboxamide] |  |  |  |  | 26% | 75 ± 21%
25 | CCc1cc(C(=O)N[C@H](C)CCCc2cccnc2)ccc1-c1ccc(OC)c(OC)c1 [(R)-2-Ethyl-3',4'-dimethoxy-N-[1-methyl-4-(3-pyridinyl)butyl][1,1'-biphenyl]-4-carboxamide] | 93 ± 1% | 4 nM |  | 89 ± 5% |  | 
26 | COc1ccc(-c2ccc(C(=O)NCCCCc3cccnc3)cc2Br)cc1OC [2-Bromo-3',4'-dimethoxy-N-[4-(3-pyridinyl)butyl]-[1,1'biphenyl]-4-carboxamide] | 81 ± 10% | 200 nM |  | 74 ± 12% |  | 
27 | O=C(NCCCCc1cccnc1)c1ccc(-c2cccc(F)c2)c(-c2cccc(F)c2)c1 [3,4-bis-(3-Fluorophenyl)-N-[4-(3-pyridinyl)butyl]-benzamide] | 12 ± 2% | 400 nM |  |  |  | 

From patent publication US4916145A, “Substituted n-[(pyridyl)alkyl]aryl-carboxamide” (Hoffmann-La Roche Inc., priority 1987, dated 1990)
